Patent US20050112573A1, “Method of detecting toxic substance” (priority 2001, published 2005)

Test system: yeast genes (level of expressed mRNA)
Experiment: DNA chip analysis of expressed mRNA of yeast genes after 2 h culture with a toxic chemical substance
Format: cell-based, Saccharomyces cerevisiae S288C
Conditions: for The level of expressed mRNA in the presence of chemical substance/ (ratio to absence of chemical substance): stress protein genes, DNA chip; for The level of expressed mRNA in the presence of chemical substance/ in its absence, gene YPR184W: yeast gene YPR184W
Procedure: Yeast (Saccharomyces cerevtisiae S288C (α SUC2mal mel gap2 CUP1)) were cultured at 25° C. on YPD medium (yeast extract 1%, polypepton 2%, glucose 2%). One of toxic chemical substances was added to the cell at logarithmic growth phase, and the cell was further cultured for two hours. Cell was cultured without any chemical substance in the same condition, and was used as control. Concentrations of the chemical substances were defined to inhibit the growth of the yeast but not lead to death.
After the completion of cultivation, the culture was centrifuged to collect the cells. To the cells, sodium acetate buffer (50 mM sodium acetate, 10 mM EDTA, 1% SDS) was added, and the mixture was shaken at 65° C. for five minutes, followed by returning to room temperature, and obtaining the supernatant, which procedure was repeated two times. To the supernatant, ½ amount of a solution of phenol/chloroform was added, and the mixture was centrifuged to give a supernatant, which was added with an equal amount of chloroform, and the mixture was centrifuged to give a supernatant. To the supernatant, an equal amount of isopropanol containing 0.3 M sodium acetate was added, and the mixture was allowed to stand at room temperature for 30 minutes, after which the mixture was centrifuged to give a sediment of the whole RNAs. Seventy % ethanol was added to the sediment, and the mixture was again centrifuged to give a sediment, which was then dried and dissolved in water. mRNA was isolated from the whole RNAs as followings. In view of the fact that a poly A chain is attached to the 3′ terminus of mRNA, a polynucleotide having a poly T structure which was immobilized on the surface of latex beads was used to trap the mRNA, and then the mRNA was washed and eluted with spine column (Oligotex-dT30<Super>mRNA Purification Kit, Takara). Reverse transcription of the mRNA was conducted with a reverse transcriptase (Super Script II Reverse Transcriptase; catalogue No. 18064-014, GibcoBRL) using fluorescence-labeled nucleotides to give cDNAs that were introduced with Cy3-dUTP or Cy5-dUTP during the reverse transcription.
The labeled cDNAs were dissolved in TE buffer (10 mM Tris-HCl/1 mM EDTA, pH8.0), and the solution was dropped on the DNA chip containing the whole genes of yeast (DNA Chip Research Inc. Japan) so that the cDNAs were hybridized on the DNA chip at 65° C. for over 12 hours. The fluoresces intensity of the DNA chip was read with a scanner, and the ratio relative to the fluorescence intensity resulting from the absence of chemical substance was estimated as the following, which is shown in Tables 1 to 9: [formula]
In the Tables, “Intensity” indicated in the rightmost column is a value of the level of expressed mRNA of each gene in control cells as divided by the average level of the expressions of the whole genes.

CCCCCCCCCCCCOS(=O)(=O)[O-].[Na+] [(18), sodium lauryl sulfate]
The level of expressed mRNA in the presence of chemical substance/The level of expressed mRNA in the absence of chemical substance (yeast gene YNL006W): 1.3 | The level of expressed mRNA in the presence of chemical substance/The level of expressed mRNA in the absence of chemical substance (yeast gene YNL007C): 1.0 | The level of expressed mRNA in the presence of chemical substance/ (in its absence), gene YNL025C (yeast gene YNL025C, ratio of DNA chip fluorescence intensity to that without chemical substance): 1.3 | The level of expressed mRNA in the presence of chemical substance/ (ratio to absence of chemical substance) (yeast gene YNL064C): 0.7 | The level of expressed mRNA in the presence of chemical substance/ (ratio to absence), gene YNL073W (yeast gene YNL073W, mitochondria-located protein genes, 2 h culture with chemical): 1.0 | The level of expressed mRNA in the presence of chemical substance/The level of expressed mRNA in the absence of chemical substance (yeast gene YNL093W): 3.1 | The level of expressed mRNA in the presence of chemical substance/ (in its absence), gene YNL192W (yeast gene YNL192W, ratio of DNA chip fluorescence intensity to that without chemical substance): 2.8 | The level of expressed mRNA in the presence of chemical substance/The level of expressed mRNA in the absence of chemical substance (yeast gene YNL333W): 1.1 | The level of expressed mRNA in the presence of chemical substance/The level of expressed mRNA in the absence of chemical substance (yeast gene YNR010W): 2.3 | The level of expressed mRNA in the presence of chemical substance/The level of expressed mRNA in the absence of chemical substance (yeast gene YNR069C): 0.9 | The level of expressed mRNA in the presence of chemical substance/ (in its absence), gene YNR072W (yeast gene YNR072W, ratio of DNA chip fluorescence intensity to that without chemical substance): 1.0 | The level of expressed mRNA in the presence of chemical substance/ (ratio to absence of chemical substance) (yeast gene YNR076W): 0.8 | The level of expressed mRNA in the presence of chemical substance/The level of expressed mRNA in the absence of chemical substance (yeast gene YOL013C): 1.4 | The level of expressed mRNA in the presence of chemical substance/ (ratio to absence), gene YOL096C (yeast gene YOL096C, mitochondria-located protein genes, 2 h culture with chemical): 1.2 | The level of expressed mRNA in the presence of chemical substance/ (in its absence), gene YOL096C (yeast gene YOL096C, ratio of DNA chip fluorescence intensity to that without chemical substance): 1.2 | The level of expressed mRNA in the presence of chemical substance/ (in its absence), gene YOL108C (yeast gene YOL108C, ratio of DNA chip fluorescence intensity to that without chemical substance): 2.7 | The level of expressed mRNA in the presence of chemical substance/ (in its absence), gene YOL116W (yeast gene YOL116W, ratio of DNA chip fluorescence intensity to that without chemical substance): 1.4 | The level of expressed mRNA in the presence of chemical substance/ (ratio to absence of chemical substance) (yeast gene YOL161C): 1.0 | The level of expressed mRNA in the presence of chemical substance/The level of expressed mRNA in the absence of chemical substance (yeast gene YOL164W): 1.3 | The level of expressed mRNA in the presence of chemical substance/ (ratio to absence of chemical substance) (yeast gene YOR008C): 1.3 | The level of expressed mRNA in the presence of chemical substance/ (ratio to absence of chemical substance) (yeast gene YOR009W): 0.8 | The level of expressed mRNA in the presence of chemical substance/ (ratio to absence of chemical substance) (yeast gene YOR010C): 0.6 | The level of expressed mRNA in the presence of chemical substance/The level of expressed mRNA in the absence of chemical substance (yeast gene YOR036W): 1.7 | The level of expressed mRNA in the presence of chemical substance/ (in its absence), gene YOR103C (yeast gene YOR103C, ratio of DNA chip fluorescence intensity to that without chemical substance): 1.5 | The level of expressed mRNA in the presence of chemical substance/The level of expressed mRNA in the absence of chemical substance (yeast gene YOR117W): 0.9 | The level of expressed mRNA in the presence of chemical substance/The level of expressed mRNA in the absence of chemical substance (yeast gene YOR124C): 1.0 | The level of expressed mRNA in the presence of chemical substance/The level of expressed mRNA in the absence of chemical substance (yeast gene YOR132W): 1.6 | The level of expressed mRNA in the presence of chemical substance/The level of expressed mRNA in the absence of chemical substance (yeast gene YOR157C): 1.2 | The level of expressed mRNA in the presence of chemical substance/ (in its absence), gene YOR180C (yeast gene YOR180C, ratio of DNA chip fluorescence intensity to that without chemical substance): 2.3 | The level of expressed mRNA in the presence of chemical substance/The level of expressed mRNA in the absence of chemical substance (yeast gene YOR181W): 0.6 | The level of expressed mRNA in the presence of chemical substance/The level of expressed mRNA in the absence of chemical substance (yeast gene YOR185C): 1.1 | The level of expressed mRNA in the presence of chemical substance/The level of expressed mRNA in the absence of chemical substance (yeast gene YOR198C): 1.5 | The level of expressed mRNA in the presence of chemical substance/ (in its absence), gene YOR251C (yeast gene YOR251C, ratio of DNA chip fluorescence intensity to that without chemical substance): 1.3 | The level of expressed mRNA in the presence of chemical substance/The level of expressed mRNA in the absence of chemical substance (yeast gene YOR259C): 1.5 | The level of expressed mRNA in the presence of chemical substance/The level of expressed mRNA in the absence of chemical substance (yeast gene YOR261C): 1.9 | The level of expressed mRNA in the presence of chemical substance/The level of expressed mRNA in the absence of chemical substance (yeast gene YOR288C): 1.6 | The level of expressed mRNA in the presence of chemical substance/ (ratio to absence), gene YOR316C (yeast gene YOR316C, mitochondria-located protein genes, 2 h culture with chemical): 1.0 | The level of expressed mRNA in the presence of chemical substance/ (in its absence), gene YOR348C (yeast gene YOR348C, ratio of DNA chip fluorescence intensity to that without chemical substance): 0.9 | The level of expressed mRNA in the presence of chemical substance/The level of expressed mRNA in the absence of chemical substance (yeast gene YOR355W): 0.9 | The level of expressed mRNA in the presence of chemical substance/ (in its absence), gene YOR363C (yeast gene YOR363C, ratio of DNA chip fluorescence intensity to that without chemical substance): 1.8 | The level of expressed mRNA in the presence of chemical substance/The level of expressed mRNA in the absence of chemical substance (yeast gene YOR383C): 1.1 | The level of expressed mRNA in the presence of chemical substance/ (ratio to absence), gene YPL040C (yeast gene YPL040C, mitochondria-located protein genes, 2 h culture with chemical): 1.1 | The level of expressed mRNA in the presence of chemical substance/ (ratio to absence of chemical substance) (yeast gene YPL059W): 1.3 | The level of expressed mRNA in the presence of chemical substance/The level of expressed mRNA in the absence of chemical substance (yeast gene YPL089C): 1.1 | The level of expressed mRNA in the presence of chemical substance/The level of expressed mRNA in the absence of chemical substance (yeast gene YPL109C): 1.2 | The level of expressed mRNA in the presence of chemical substance/ (ratio to absence), gene YPL134C (yeast gene YPL134C, mitochondria-located protein genes, 2 h culture with chemical): 1.3 | The level of expressed mRNA in the presence of chemical substance/ (ratio to absence of chemical substance) (yeast gene YPL140C): 1.4 | The level of expressed mRNA in the presence of chemical substance/ (in its absence), gene YPL148C (yeast gene YPL148C, ratio of DNA chip fluorescence intensity to that without chemical substance): 1.1 | The level of expressed mRNA in the presence of chemical substance/The level of expressed mRNA in the absence of chemical substance (yeast gene YPL149W): 2.9 | The level of expressed mRNA in the presence of chemical substance/The level of expressed mRNA in the absence of chemical substance (yeast gene YPL154C): 2.0 | The level of expressed mRNA in the presence of chemical substance/ (ratio to absence of chemical substance) (yeast gene YPL194W): 0.8 | The level of expressed mRNA in the presence of chemical substance/ (ratio to absence of chemical substance) (yeast gene YPR005C): 1.1 | The level of expressed mRNA in the presence of chemical substance/The level of expressed mRNA in the absence of chemical substance (yeast gene YPR103W): 1.5 | The level of expressed mRNA in the presence of chemical substance/The level of expressed mRNA in the absence of chemical substance (yeast gene YPR108W): 1.3 | The level of expressed mRNA in the presence of chemical substance/ (in its absence), gene YPR165W (yeast gene YPR165W, ratio of DNA chip fluorescence intensity to that without chemical substance): 2.7 | The level of expressed mRNA in the presence of chemical substance/ in its absence, gene YPR184W (energy system protein genes, 2 h culture with the chemical, ratio to control without chemical): 1.7 | The level of expressed mRNA in the presence of chemical substance/ in its absence, gene YPR184W (ratio of DNA chip fluorescence intensity to that without chemical substance): 1.7
